Reference: publication PMC11441021, “Novel hybrids of 1,2,3-triazole-benzoxazole: design, synthesis, and assessment of DprE1 enzyme inhibitors using fluorometric assay and computational analysis” (Journal of Enzyme Inhibition and Medicinal Chemistry, 2024)
≈ marks a conversion by molar mass, not a printed value. Where “and” joins values, the source holds several entries; their conditions need not be identical. Equal entries are not always repeated.

Tests used:
[1] = test system: mouse fibroblast 3T3 cells; assay: MTT cytotoxicity assay on mouse fibroblast 3T3 cells; type: cell-based; conditions: for Selectivity index: IC50 (μg/mL)/MIC (μg/mL), 3T3 cells vs Mtb H37Rv; for IC50: NIH3T3, MTT assay, read-out: 3T3 cell IC50
[2] = test system: M. tuberculosis H37Rv strain; assay: Resazurin microtiter assay (REMA), MIC against Mtb H37Rv; type: cell-based, Mycobacterium tuberculosis; conditions: MTB H37Rv (ATCC 27294), 7 days incubation, text calls it MIC; for MIC50: Mycobacterium tuberculosis, ATCC 27294 / H37Rv, 168 h
DprE1 = DprE1 (Mycobacterium tuberculosis, UniProt P9WJF1); assay: DprE1 inhibition (resazurin redox indicator, fluorometric) assay; type: biochemical; conditions: purified DprE1, GGPR substrate
Sequence of DprE1 (P9WJF1 whole entry): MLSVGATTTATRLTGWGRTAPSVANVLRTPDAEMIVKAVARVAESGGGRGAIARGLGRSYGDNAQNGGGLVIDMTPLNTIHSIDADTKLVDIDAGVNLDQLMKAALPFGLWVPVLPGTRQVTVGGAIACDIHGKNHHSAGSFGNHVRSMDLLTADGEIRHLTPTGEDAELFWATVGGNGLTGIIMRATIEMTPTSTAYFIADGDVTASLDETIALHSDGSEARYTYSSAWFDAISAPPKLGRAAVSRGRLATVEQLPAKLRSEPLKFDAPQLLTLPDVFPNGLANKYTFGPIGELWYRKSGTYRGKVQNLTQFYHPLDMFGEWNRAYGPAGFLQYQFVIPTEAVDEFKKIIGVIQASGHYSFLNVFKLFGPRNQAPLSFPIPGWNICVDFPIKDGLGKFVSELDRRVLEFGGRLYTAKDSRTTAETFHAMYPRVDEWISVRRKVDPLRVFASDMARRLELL
Procedure: For the identification and validation of the biological target for this new series of 1,2,3-triazole-linked benzoxazoles, compounds displaying antimycobacterial activity below 6 μg/mL and showcasing diverse side chains were assessed against the purified DprE1 protein (Table 1). The assessment of the compounds’ ability to inhibit DprE1 activity was conducted through an in-vitro assay. This involved purified DprE1 protein, geranylgeranyl-phosphoryl-β-d-ribose (GGPR) substrate, and resazurin as a redox indicator. The synthesised molecules were tested for their impact on DprE1 activity within this experimental setup. The initial rates of activity, characterised by increasing concentrations of the compound, were measured and compared to the control compound TCA-1. The half maximal inhibitory concentration (IC50) was then calculated for each synthesised compound, quantitatively assessing their inhibitory effect. […] The promising results prompted us to delve deeper into these compounds through initial assessments of their druggability profiles and validation via computational studies. This approach aims to enhance our understanding of the structural features involved in the inhibition mechanism of the DprE1 enzyme, utilising docking and molecular dynamics (MD) simulation studies.
A redox indicator assay was conducted following a previously described protocol, utilising the reduction of resazurin to its fluorescent form, resorufin. In this assay, the DprE1 cofactor FAD undergoes reduction to FADH2, while the C-2 hydroxyl group of the substrate GGPR is oxidised to form a keto-intermediate known as geranylgeranylphosphoryl-β-d-2′-keto-erythro-penta-furanose (GGPX)[11]^,[40]. The inhibition of DprE1 was assessed using an activity assay, with the half maximal inhibitory concentration (IC50) determined for each tested compound. Intermediate plates of compounds were prepared in V-bottomed 96-well plates, where the compounds were serially diluted twofold in DMSO. Subsequently, 1 µL of each compound dilution was pipetted in triplicate into Greiner black-bottomed 384 plates. The master mix (19 µL), comprising 5 µM DprE1, 50 mM Hepes pH 7.5, 100 mM NaCl, and 100 µM resazurin, was added to the compounds in the plate. The assay was initiated with 5 µL of 1 mM GGPR using the pump on the POLARstar Omega plate reader (BMG Labtech). Emission was measured at 590 nm with excitation at 530 nm at 37 °C[41]^. IC50 values were calculated using Prism GraphPad, fitting the data to a four-parameter dose–response curve. The initial rates of activity were used for the calculations, and fluorescence units were converted to µM resazurin reduced by referencing a resorufin standard curve.

[3] = Mus musculus, mouse fibroblast 3T3 cells, cytotoxicity

| Structure (SMILES) | IC50 [1, 3] [µg/mL] | MIC50 [2] [µg/mL] | IC50 (DprE1) | melting point [°C] | further results |
| --- | --- | --- | --- | --- | --- |
| O=C(CC(=O)Nc1ccccc1)Cn1cc(CSc2nc3ccccc3o2)nn1 [BOK-1, 4–(4-((Benzo[d]oxazol-2-ylthio)methyl)-1H-1,2,3-triazol-1-yl)-3-oxo-N-phenyl butanamide] | 118 (≈ 291 µM) | ≤ 6.25 | 5.2 ± 0.6 µM |  | Selectivity index [1]: 37.07 |
| O=C(CC(=O)Nc1ccccc1F)Cn1cc(CSc2nc3ccccc3o2)nn1 [BOK-3, 4–(4-((Benzo[d]oxazol-2-ylthio)methyl)-1H-1,2,3-triazol-1-yl)-N-(2-fluorophenyl)-3-oxobutanamide] | 112 (≈ 263 µM) |  | 3 ± 0.6 µM |  | Selectivity index [1]: 46.75 |
| O=C(CC(=O)Nc1ccc(Br)cc1)Cn1cc(CSc2nc3ccccc3o2)nn1 [BOK-8, 4–(4-((Benzo[d]oxazol-2-ylthio)methyl)-1H-1,2,3-triazol-1-yl)-N-(4-bromophenyl)-3-oxo butanamide] |  | 44.1 (≈ 90.7 µM) |  | 210 to 214 |  |
| Cc1ccc(NC(=O)CC(=O)Cn2cc(CSc3nc4ccccc4o3)nn2)cc1 [BOK-5, 4–(4-((Benzo[d]oxazol-2-ylthio)methyl)-1H-1,2,3-triazol-1-yl)-3-oxo-N-(p-tolyl) butanamide] |  | 11.6 (≈ 27.5 µM) |  | 175 to 179 |  |
| Cc1ccccc1NC(=O)CC(=O)Cn1cc(CSc2nc3ccccc3o2)nn1 [BOK-2, 4–(4-((Benzo[d]oxazol-2-ylthio)methyl)-1H-1,2,3-triazol-1-yl)-3-oxo-N-(o-tolyl) butanamide] | 104 (≈ 247 µM) |  | 2 µM and 2.2 µM |  | Selectivity index [1]: 57.77; 3T3 cell IC50 ([1]; MTT assay, mouse fibroblast 3T3 cells, cytotoxicity): 103.92 µg/mL |
| O=C(Cn1cc(CSc2nc3ccccc3o2)nn1)c1ccc(F)cc1 [BOP-4, 2–(4-((Benzo[d]oxazol-2-ylthio)methyl)-1H-1,2,3-triazol-1-yl)-1–(4-fluorophenyl)ethan-1-one] | 55.8 (≈ 151 µM) | ≤ 6.25 | 3.1 ± 0.7 µM |  | Selectivity index [1]: 11.62 |
| Cc1ccc(C(=O)Cn2cc(CSc3nc4ccccc4o3)nn2)cc1 [BOP-3, 2–(4-((Benzo[d]oxazol-2-ylthio)methyl)-1H-1,2,3-triazol-1-yl)-1-(p-tolyl)ethan-1-one] |  | 20.5 (≈ 56.3 µM) |  | 142 to 146 |  |
| O=C(Cn1cc(CSc2nc3ccccc3o2)nn1)c1ccccc1 [BOP-1, 2–(4-((Benzo[d]oxazol-2-ylthio)methyl)-1H-1,2,3-triazol-1-yl)-1-phenylethan-1-one] | 51.7 (≈ 148 µM) | ≤ 6.25 | 3.3 ± 1 µM |  | Selectivity index [1]: 8.76 |
| COc1ccc(NC(=O)CC(=O)Cn2cc(CSc3nc4ccccc4o3)nn2)cc1 [BOK-9, 4–(4-((Benzo[d]oxazol-2-ylthio)methyl)-1H-1,2,3-triazol-1-yl)-N-(4-methoxyphenyl)-3-oxo butanamide] |  | 10.6 (≈ 24.2 µM) |  | 169 to 172 |  |
| CO[C@H]1/C=C/O[C@@]2(C)Oc3c(C)c(O)c4c(O)c(c(/C=N/N5CCN(C)CC5)c(O)c4c3C2=O)NC(=O)/C(C)=C\C=C\[C@H](C)[C@H](O)[C@@H](C)[C@@H](O)[C@@H](C)[C@H](OC(C)=O)[C@@H]1C [Rifampicin, reference compound] |  | < 0.004 |  |  |  |
| O=C(CC(=O)Nc1cccc(Cl)c1)Cn1cc(CSc2nc3ccccc3o2)nn1 [BOK-4, 4–(4-((Benzo[d]oxazol-2-ylthio)methyl)-1H-1,2,3-triazol-1-yl)-N-(3-chlorophenyl)-3-oxobutanamide] |  | 3.7 (≈ 8.37 µM) |  | 165 to 169 | Mtb H37Rv MIC50 [2]: 6.9 µg/mL |
| O=c1[nH]cc(F)c(=O)[nH]1 [5-Fluorouracil, reference compound] | 53.7 (≈ 413 µM) |  |  |  | inhibition at 50 µg/mL ([1]; Mus musculus, NIH3T3, MTT assay, 50 μg/mL, read-out: percentage inhibition of 3T3 cells): > 42% |
| O=C(CC(=O)Nc1ccc(Cl)cc1)Cn1cc(CSc2nc3ccccc3o2)nn1 [BOK-7, 4–(4-((Benzo[d]oxazol-2-ylthio)methyl)-1H-1,2,3-triazol-1-yl)-N-(4-chlorophenyl)-3-oxo butanamide] |  | 6.9 (≈ 15.6 µM) |  | 171 to 174 | Mtb H37Rv MIC50 [2]: 6.7 µg/mL |
| CCOC(=O)NC(=O)c1ccsc1NC(=O)c1nc2ccccc2s1 [TCA-1, reference compound] |  |  | 3 ± 0.2 µM |  |  |
| O=C(CC(=O)Nc1ccc(C(F)(F)F)cc1)Cn1cc(CSc2nc3ccccc3o2)nn1 [BOK-6, 4–(4-((Benzo[d]oxazol-2-ylthio)methyl)-1H-1,2,3-triazol-1-yl)-3-oxo-N-(4-(trifluoromethyl)phenyl)butanamide] |  | 39.6 (≈ 83.3 µM) |  | 185 to 189 |  |
| COc1ccc(C(=O)Cn2cc(CSc3nc4ccccc4o3)nn2)cc1 [BOP-2, 2–(4-((Benzo[d]oxazol-2-ylthio)methyl)-1H-1,2,3-triazol-1-yl)-1–(4-methoxyphenyl)ethan-1-one] |  | 19.1 (≈ 50.1 µM) |  | 148 to 152 |  |
| O=C(Cn1cc(CSc2nc3ccccc3o2)nn1)c1ccc([N+](=O)[O-])cc1 [BOP-5, 2–(4-((Benzo[d]oxazol-2-ylthio)methyl)-1H-1,2,3-triazol-1-yl)-1–(4-nitrophenyl)ethan-1-one] |  | 32.3 (≈ 81.7 µM) |  | 142 to 146 |  |
| CCOc1ccc(NC(=O)CC(=O)Cn2cc(CSc3nc4ccccc4o3)nn2)cc1 [BOK-10, 4–(4-((Benzo[d]oxazol-2-ylthio)methyl)-1H-1,2,3-triazol-1-yl)-N-(4-ethoxyphenyl)-3-oxo butanamide] |  | 42.6 (≈ 94.4 µM) |  | 175 to 179 |  |
